Measurements reported in patent publication US4540428A (priority 1983, dated 1985).

What was measured:
soil urease [1] = assay: Urea hydrolyzed as a function of time in soil at 35° C. (procedure of Example VI, FIG. 1); type: biochemical; details: 10 micrograms of urease inhibitor per gram of soil; for urease inhibiting activity at 35° C. (in words): soil at 35° C. (95° F.), period of 12 days, sampled every two days
Method: The drawing is a graph of urea hydrolyzed as a function of time at 35° C. using 10 micrograms of urease inhibitor per gram of soil.
Certain compounds were evaluated to determine their effectiveness as urease inhibitors. The inhibition tests were run in a New York State soil (Cazenovia sandy loam, pH 7.2). Evaluations (run in triplicate) consisted of applying 800 micrograms of test compound in 5 mL of water and 42.8 mg urea in 1 mL of water to 20 g of air-dry soil in a glass bottle. The bottle was capped with perforated aluminum foil and incubated at 25° C. for 3 days prior to extraction with 100 mL of 2M KCl solution containing 0.5 mg of phenylmercuric acetate. The extracts were then analyzed for remaining urea using an autoanalyzer. Percent inhibition was calculated as [formula] where A is urea recovered from unincubated sample (urea added to soil and immediately extracted); B is urea recovered from inhibited sample; and C is urea recovered from the control (uninhibited sample).
Employing the procedure of Example VI, the urease inhibiting activity at 35° C. of the prior art urease inhibitor, phenyl phosphorodiamidate, and N-(2-chloroethyl)phosphoric triamide were evaluated. In the evaluation, soil samples were taken every two days and analyzed for urea content.

soil urease [2] = type: biochemical; details: for % Inhibition 40 microgram per gram soil: pH 7.2
urease = details: stated as well known; cited from earlier work

SMILES | urease inhibiting activity at 35° C. (in words) (soil urease [1]) | % Inhibition 1 microgram per gram soil (soil urease [2]) | % Inhibition 40 microgram per gram soil (soil urease [2]) | time to essentially complete urea hydrolysis (soil urease [1]; soil at 35° C.) | inhibitory effect on urease at 25° C. (in words) (urease)
NP(N)(=O)NCCCl [Experiment 1, N-2-Chloroethyl Phosphoric Triamide] | excellent inhibitor | – | – | – | –
NP(N)(=O)NCCCl [Experiment 1] | – | 77% | 100% | – | –
NP(N)(=O)NCCCBr [Experiment 3] | – | 83% | 99% | – | –
NP(N)(=O)Oc1ccccc1 [phenyl phosphorodiamidate] | much less effective | – | – | essentially complete urea hydrolysis after only six days | excellent inhibitory effect
